Results as given in US8835474B2, “Remedy for overactive bladder comprising acetic acid anilide derivative as the active ingredient” (Astellas Pharma Inc., priority 2002, dated 2014).

How the values were obtained:
[1] = test system: isolated rat bladder smooth muscle; test: Isolated rat bladder smooth muscle relaxation test, antagonism test to contraction by carbachol; assay type: cell-based; conditions: for EC50: Rattus norvegicus; for EC50 / Maximum Relaxation Rate: contraction by 10^−6 M carbachol, relaxation by 10^−4 M papaverine defined as 100%; for Comparison of Action Strength: compared in the concentration giving a relaxation rate of 15.7%, CGP-12,177A = 1; for Concentration where the compound showed a relaxation rate of 15.7%: maximum relaxation rate of CGP-12,177A
Method: (§1) The test was conducted by referring to The Journal of Urology, 1999, volume 161, page 680.
(§2) Male rats of Wistar strain of 10 to 11 weeks age were sacrificed by depletion, whole bladder was isolated by laparotomy and bladder sections each being in a size of about 3×10 mm were prepared in a nutrient solution which was well oxygenated with 95% O2 and 5% CO2 (Krebs-Henseleit solution (118.4 mM NaCl, 4.7 mM KCl, 1.2 mM KH2PO4; 1.2 mM MgSO4, 2.5 mM CaCl2, 25.0 mM NaHCO3 and 11.1 mM glucose)). The section was hung in a Magnus tube in which a nutrient solution (Krebs-Henseleit solution) of 37° C. into which 95% O2 and 5% CO2 were aerated, stabilized for 30 to 60 minutes with a load of 1 g and 10^−6 M carbachol (CCh) or 40 mM potassium chloride (KCl) was repeatedly applied thereto whereupon it was confirmed that reactivity to CCh or KCl became almost constant. After contraction by 10^−6 M CCh or 40 mM KCl was induced and the generated tension was stabilized, a test drug (compound A or CGP-12, 177A) was cumulatively administered in 10-fold ratio with intervals of about 10 minutes and the relaxation reaction was observed. After completion of observation of relaxation reaction at maximum concentration of the test drug, 10^−4 M papaverine was added to induce the maximum relaxation and a relaxation rate was calculated where the relaxation reaction was defined as 100%.

[2] = test system: isolated rat bladder smooth muscle; test: Isolated rat bladder smooth muscle relaxation test, antagonism test to contraction by potassium chloride; assay type: cell-based; conditions: for EC50: Rattus norvegicus; for EC50 / Maximum Relaxation Rate: contraction by 40 mM potassium chloride, relaxation by 10^−4 M papaverine defined as 100%; for Comparison of Action Strength: compared in the concentration giving a relaxation rate of 17.4%, CGP-12,177A = 1; for Concentration where the compound showed a relaxation rate of 17.4%: maximum relaxation rate of CGP-12,177A
Method: as §1, §2

[3] = test system: rhythmic bladder contraction; test: Rat rhythmic bladder contraction measurement test; assay type: in vivo
Method: The test was conducted by referring to European Journal of Pharmacology, 2000, volume 407, page 175. Female rats (225 to 290 g) of Wistar strain was used for the test. Under anesthetization with urethane, right and left ureters were ligated and cut and, after that, a polyethylene cannula was inserted from external urinary meatus and fixed. One end of the fixed cannula was connected to a pressure transducer via a three-way cock and pressure in the bladder was measured. Another end thereof was connected to a syringe pump and a physiological saline solution was continuously infused at a constant rate into bladder whereupon rhythmic bladder contraction was induced. The continuous infusion of a physiological saline solution was stopped after a rhythmic bladder contraction was noted. After the rhythmic bladder contraction was stabilized, drug or vehicle was administered from a catheter for administration of drug inserted into femoral vein. The compound A was intravenously administered in increased doses where the ratio was 3 (0.03, 0.1, 0.3, 1 and 3 mg/kg). A group to which vehicle was administered was used as a control group. Parameters for evaluation were number of times and contraction pressure of bladder contraction during 10 minutes from 5 to 15 minutes after the administration of the drug and each group was conducted in n=5. The result is shown in terms of mean value±standard error and Student t-test was conducted for comparison between the two groups.

[4] = test system: cyclophosphamide-induced overactive bladder model rat; test: Measurement of urination function of overactive bladder model rat induced by cyclophosphamide; assay type: in vivo; conditions: 1 mg/kg i.v.; 30 minutes after administration versus 30 minutes before
Method: Overactive bladder model rats induced by cyclophosphamide were prepared by referring to British Journal of Pharmacology, 2000, volume 130, page 331 and the following test was conducted. Female rats (220 to 230 g) of Wistar strain were used for the test. Under anesthetization with pentobarbital sodium, a catheter for infusion of physiological saline solution and for measurement of pressure in bladder was inserted into bladder from the top of the bladder and fixed while a catheter for administration of a drug was inserted into carotid vein and fixed. Cyclophosphamide (CYP) was administered into abdominal cavity and, after being recovered, the rats were returned to a feeding cage. On the next day of the operation, one end of the catheter inserted into bladder of the rat was connected to a syringe pump via a three-way cock and a physiological saline solution was continuously infused whereby |micturition| reflex was induced. Another end was connected to a pressure transducer and pressure in the bladder was measured. After the micturition reflex was stabilized, 1 mg/kg of the compound A was administered from a catheter for administration of drug which was inserted into carotid vein. Parameter for the evaluation was an average interval for urination from administration of the drug until 30 minutes thereafter. […]

[5] = contraction by potassium chloride

`CC(C)(C)NC[C@H](O)COc1cccc2[nH]c(=O)[nH]c12` [CGP-12, 177A, reference compound] was tested, and the EC50 [1] was greater than 100 µM, the “Maximum Relaxation Rate” value [1] was 15.7% and the “Comparison of Action Strength” value ([1]; contraction by carbachol) was 1. The “Concentration where the compound showed a relaxation rate of 15.7%” value ([1]; contraction by carbachol) was 10^−4 M, the EC50 [2] was greater than 100 µM and the “Maximum Relaxation Rate” value [2] was 17.4%. The “Comparison of Action Strength” value [2, 5] was 1 and the “Concentration where the compound showed a relaxation rate of 17.4%” value [2, 5] was 10^−4 M.
`Nc1nc(CC(=O)Nc2ccc(CCNC[C@H](O)c3ccccc3)cc2)cs1` [Compound A, (R)-2-(2-aminothiazol-4-yl)-4′-[2-[(2-hydroxy-2-phenylethyl)amino]-ethyl]acetic acid anilide] was tested, and the “action of decreasing the contraction frequency versus control group” value ([3]; 3 mg/kg i.v., Student t-test, p<0.05) was “significant”, the “contraction frequency of rhythmic bladder contraction” value ([3]; i.v. 0.03, 0.1, 0.3, 1 and 3 mg/kg, 5 to 15 minutes after administration, anesthetized female Wistar rats) was “decreased on a dose-dependent manner” and the “contraction pressure of rhythmic bladder contraction” value ([3]; until intravenous administration of 3 mg/kg) was “did not affect”. For the same compound, the EC50 [1] was 5.2 µM, the relaxation action ([1]; antagonism test to contraction by carbachol) was “strong relaxation action” and the “Maximum Relaxation Rate” value [1] was 94.0%. For the same compound, the “action strength as compared with CGP-12,177A” value ([1]; contraction by carbachol) was 270 fold, the “Comparison of Action Strength” value ([1]; contraction by carbachol) was 270 and the “Concentration where the compound showed a relaxation rate of 15.7%” value ([1]; contraction by carbachol) was 3.7e-07 M. For the same compound, the “elongation of micturition interval” value [4] was 17.3%, the EC50 [2] was 11 µM and the relaxation action ([2]; antagonism test to contraction by potassium chloride) was “strong relaxation action”. For the same compound, the “Maximum Relaxation Rate” value [2] was 69.1%, the “action strength as compared with CGP-12,177A” value [2, 5] was 383 fold and the “Comparison of Action Strength” value [2, 5] was 383. The “Concentration where the compound showed a relaxation rate of 17.4%” value [2, 5] was 2.6e-07 M.
